Source: ChEMBL document CHEMBL1149667, “Synthesis of ferulic ester dimers, functionalisation and biological evaluation as potential antiatherogenic and antiplasmodial agents” (Bioorg Med Chem, 2007)
The source made the active and inactive calls. The rule behind the calls is not given here.

Key:
HMEC-1 [1] = assay: (§1) Cytoprotective effect on HMEC1 cells assessed as cell viability at 10 uM after 24 hrs by MTT assay; format: functional; details: Homo sapiens
HMEC-1 [2] = assay: Effect on HMEC1 cells-mediated LDL oxidation at 10 uM after 6 hrs by TBARS assay; format: functional
HMEC-1 [3] = assay: (§2) Cytoprotective effect on HMEC1 cells assessed as cell viability by MTT assay; format: functional; details: Homo sapiens
P388 [4] = assay: Cytotoxicity against mouse P388 cells at 10 ug/mL after 72 hrs; format: functional; details: P388, 72 h
[5] = as §1; format: functional; details: Homo sapiens, HMEC-1, 24 h, read-out: Activity
Plasmodium falciparum [6] = assay: Antiplasmodial activity against Plasmodium falciparum FCM29 at 10 ug/mL as [3H]hypoxanthine uptake; format: functional
[7] = as §2; format: functional, Homo sapiens, HMEC-1
P388 [8] = assay: Cytotoxicity against mouse P388 cells after 72 hrs; format: functional, cell-based; details: P388, 72 h
HMEC-1 [9] = assay: Effect on HMEC1 cells-mediated LDL oxidation at 100 uM after 6 hrs by TBARS assay; format: functional, cell-based; details: Homo sapiens
Plasmodium falciparum [10] = assay: Antiplasmodial activity against Plasmodium falciparum FCM29 by [3H]hypoxanthine uptake; format: functional, organism-based

Molecule: VITAMIN E
- Activity (HMEC-1 [1]): 40%
- Activity (HMEC-1 [2]; Homo sapiens): 55%
- Activity (HMEC-1 [3]): 29%

Molecule: COC(=O)/C=C/c1ccc(O/C(=C\c2ccc(O)c(OC)c2)C(=O)OC)c(OC)c1
- inhibition at 10 µg/mL (P388 [4]): 0%
- viability at 10 µM [5]: 40%
- Activity (HMEC-1 [2]; Homo sapiens): Active
- inhibition at 10 µg/mL (Plasmodium falciparum [6]): 23.8%
- Activity (HMEC-1 [3]): Active

Molecule: CC(C)(Sc1cc(C(C)(C)C)c(O)c(C(C)(C)C)c1)Sc1cc(C(C)(C)C)c(O)c(C(C)(C)C)c1 [PROBUCOL]
- viability at 10 µM [5]: 55%
- Activity (HMEC-1 [2]): 10%
- Activity [7]: 92%

Molecule: COC(=O)/C=C/c1cc(OC)c2c(c1)C(C(=O)OC)C(c1ccc(O)c(OC)c1)O2 (stereo not drawn)
- inhibition at 10 µg/mL (P388 [4]): 85.2%
- viability at 10 µM [5]: 40%
- Activity (HMEC-1 [2]; Homo sapiens): Active
- inhibition at 10 µg/mL (Plasmodium falciparum [6]): 0%
- IC50 (P388 [8]): 772 nM
- Activity (HMEC-1 [3]): Active

Molecule: CC[C@@]1(O)C(=O)OCc2c1cc1n(c2=O)Cc2cc3ccccc3nc2-1 [CAMPTOTHECIN]
- IC50 (P388 [8]): 32.1 nM

Molecule: COC(=O)/C=C/c1cc(OC)c2c(c1)C(CO)C(c1ccc(O)c(OC)c1)O2 (stereo not drawn)
- inhibition at 10 µg/mL (P388 [4]): 8.63%
- viability at 10 µM [5]: 40%
- Activity (HMEC-1 [9]): Active
- inhibition at 10 µg/mL (Plasmodium falciparum [6]): 25.7%

Molecule: COC(=O)/C=C/c1cc(OC)c2c(c1)C(COC(=O)c1cc(O)c(O)c(O)c1)C(c1ccc(O)c(OC)c1)O2 (stereo not drawn)
- inhibition at 10 µg/mL (P388 [4]): 16.4%
- viability at 10 µM [5]: 40%
- Activity (HMEC-1 [2]): 2.2%
- inhibition at 10 µg/mL (Plasmodium falciparum [6]): 93.7%
- IC50 (Plasmodium falciparum [10]): 798 nM
- Activity [7]: 59.9%
